Values of other authors as cited in patent US11549142B2, “CETP inhibitors for therapeutic use” (Hoffmann-La Roche Inc., priority 2013, dated 2023).

System: patients
Conditions: torcetrapib and atorvastatin concomitantly compared to atorvastatin alone; cited from earlier work

For CCOC(=O)N1c2ccc(C(F)(F)F)cc2[C@@H](N(Cc2cc(C(F)(F)F)cc(C(F)(F)F)c2)C(=O)OC)C[C@H]1CC [torcetrapib, (2R,4S)-4-[(3,5-bistrifluoromethylbenzyl)methoxycarbonylamino]-2-ethyl-6-trifluoromethyl-3,4-dihydro-2H-quinoline-1-carboxylic acid ethyl ester], the “reason for termination of the Phase III clinical trial” value is given as “incidence of mortality”.
